How the values were obtained:
[1] = Comparative stability study of solutions of docetaxel tri-hydrate and anhydrous forms in polysorbate 80 with and without acid; assay type: physicochemical; conditions: solutions in polyethoxylated sorbitol previously or posteriorly acidified
[2] = Comparative stability study between the tri-hydrate and anhydrous forms of docetaxel (bulk substance); assay type: physicochemical; parameters: Assay (H2O): unit not given here; conditions: for A % Docetaxel / A % Impurities (unknown) / Assay (H2O): bulk substance; for A % Docetaxel: amber glass vials under N2 over P2O5, −5 to 0° C.; for A % Docetaxel / A % Impurities (unknown): HPLC; for A % Impurities (unknown) / Assay (H2O): −5 to 0° C.; for Assay (H2O): Karl Fischer titration
Method: Comparative stability study between the tri-hydrate and anhydrous forms of (2R,3S)4-acetoxy-2-α-benzoyloxy-5β-20-epoxy-1,7-β-10-β-tri-hydroxy-9-oxo-tax-11-en-13α-il 3-tert-butoxycarbonylamino-2-hydroxy-3-phenylpropionate
Analysis was realized by HPLC using a Waters Spherisorb® C-18, 250×5 mm column, mobile phase MeOH:H2O 85:15, flow 1.5 mL/min. Related impurities reported as A % discounting the peak due to the dead volume. Samples were stored in amber glass vials under N2 in a dessicator over P2O5 maintained between −5 and 0° C.

[3] = statement of patent application PI 9508789-3; cited from earlier work
[4] = stored under adequate and controlled conditions

| SMILES | A % Docetaxel ([2]; 0 months) [A %] | A % Impurities (unknown) ([2]; 0 months) [A %] | Assay (H2O) ([2]; 0 months) | A % Docetaxel ([2]; 3 months) [A %] | A % Impurities (unknown) ([2]; 3 months) [A %] | Assay (H2O) ([2]; 3 months) | A % Docetaxel ([2]; 6 months) [A %] | A % Impurities (unknown) ([2]; 6 months) [A %] | Assay (H2O) ([2]; 6 months) | A % Docetaxel ([2]; 12 months) [A %] | A % Impurities (unknown) ([2]; 12 months) [A %] | Assay (H2O) ([2]; 12 months) | A % Docetaxel ([2]; 18 months) [A %] | A % Impurities (unknown) ([2]; 18 months) [A %] | Assay (H2O) ([2]; 18 months) | A % Docetaxel ([2]; 24 months) [A %] | A % Impurities (unknown) ([2]; 24 months) [A %] | Assay (H2O) ([2]; 24 months) | other results |
| --- | --- | --- | --- | --- | --- | --- | --- | --- | --- | --- | --- | --- | --- | --- | --- | --- | --- | --- | --- |
| CC(=O)O[C@@]12CO[C@@H]1C[C@H](O)[C@@]1(C)C(=O)[C@H](O)C3=C(C)[C@@H](OC(=O)[C@H](O)[C@@H](NC(=O)OC(C)(C)C)c4ccccc4)C[C@@](O)([C@@H](OC(=O)c4ccccc4)[C@H]21)C3(C)C [Docetaxel (anhydrous), (2R,3S)4-acetoxy-2-α-benzoyloxy-5β-20-epoxy-1,7-β-10-β-tri-hydroxy-9-oxo-tax-11-en-13α-il 3-tert-butoxycarbonylamino-2-hydroxy-3-phenylpropionate] | 99.28 | 0.72 | 0.10 | 99.21 | 0.79 | 0.11 | 99.26 | 0.73 | 0.12 | 98.93 | 1.07 | 0.09 | 98.65 | 1.35 | 0.12 | 98.29 | 1.71 | 0.13 | stability conferred to the pharmaceutical finished dosage form [1]: equal or superior stability; re-hydration on storage [2, 4]: does not re-hydrate to a significant degree; stability of anhydrous product compared with tri-hydrate [2, 4]: stability equal or superior to the tri-hydrate |
| CC(=O)O[C@@]12CO[C@@H]1C[C@H](O)[C@@]1(C)C(=O)[C@H](O)C3=C(C)[C@@H](OC(=O)[C@H](O)[C@@H](NC(=O)OC(C)(C)C)c4ccccc4)C[C@@](O)([C@@H](OC(=O)c4ccccc4)[C@H]21)C3(C)C [Docetaxel (tri-hydrate), tri-hydrate of (2R,3S)4-acetoxy-2-α-benzoyloxy-5β-20-epoxy-1,7-β-10-β-tri-hydroxy-9-oxo-tax-11-en-13α-il 3-tert-butoxycarbonylamino-2-hydroxy-3-phenylpropionate] | 99.51 | 0.49 | 6.32 | 99.23 | 0.77 | 6.35 | 99.30 | 0.70 | 6.21 | 98.91 | 1.09 | 6.42 | 98.72 | 1.28 | 6.31 | 98.21 | 1.79 | 6.29 | stability of tri-hydrate relative to anhydrous product [3]: clearly superior stability relative to the anhydrous product |

Source: US8304450B2, “Stable pharmaceutical compositions with docetaxel” (Quiral Quimica Do Brasil S.A., priority 2003, dated 2012)
